Data published in the supplement of paper PMC8671470.

Test system: myeloid leukemia patient primary cells Pat.10
Assay: cell viability (% survival relative to DMSO control); higher = less cytotoxic
Conditions: 1 nM; 72 h
In short: (§1)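 Thawed mononuclear cells from AML or CML patients were purified on Ficoll and cultured for 72 h in RPMI 1640 with 10% FBS, at 10,000 cells/well, on 384-well plates carrying 70 pre-printed compounds at 1–10,000 nM in five tenfold steps, in duplicate. Viability came from CellTiter-Glo, normalised against DMSO and against 10 μM proteasome inhibitor. Any area under the curve given was derived from log-logistic curve fits in the drc and PharmacoGx R packages, and these fits had four parameters.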

Structure (SMILES) | cell viability [%]
O=C(Cc1cccc(OC(F)(F)F)c1)Nc1ccc(CCCCc2nnc(NC(=O)Cc3ccccn3)s2)nn1 [CB-839] | 52.5
O=C(/C=C/c1cccnc1)NCCCCC1CCN(C(=O)c2ccccc2)CC1 [Daporinad] | 28.5
Nc1ccn([C@@H]2O[C@H](CO)[C@@H](O)C2(F)F)c(=O)n1 [Gemcitabine] | 67.4
Clc1cc(Cl)c(OCC#CI)cc1Cl [Haloprogin] | 43.6
O=c1[nH]c(=O)n([C@H]2C[C@H](O)[C@@H](CO)O2)cc1I [Idoxuridine] | 76.4

Same assay, conditions: 10 nM; 72 h

Structure (SMILES) | cell viability [%]
O=C(Cc1cccc(OC(F)(F)F)c1)Nc1ccc(CCCCc2nnc(NC(=O)Cc3ccccn3)s2)nn1 [CB-839] | 47.9
O=C(/C=C/c1cccnc1)NCCCCC1CCN(C(=O)c2ccccc2)CC1 [Daporinad] | 2.87
Nc1ccn([C@@H]2O[C@H](CO)[C@@H](O)C2(F)F)c(=O)n1 [Gemcitabine] | 32.6
Clc1cc(Cl)c(OCC#CI)cc1Cl [Haloprogin] | 75.4
O=c1[nH]c(=O)n([C@H]2C[C@H](O)[C@@H](CO)O2)cc1I [Idoxuridine] | 55.7

Same assay, conditions: 100 nM; 72 h

Structure (SMILES) | cell viability [%]
O=C(Cc1cccc(OC(F)(F)F)c1)Nc1ccc(CCCCc2nnc(NC(=O)Cc3ccccn3)s2)nn1 [CB-839] | 24.4
O=C(/C=C/c1cccnc1)NCCCCC1CCN(C(=O)c2ccccc2)CC1 [Daporinad] | < 0
Nc1ccn([C@@H]2O[C@H](CO)[C@@H](O)C2(F)F)c(=O)n1 [Gemcitabine] | 64.3
Clc1cc(Cl)c(OCC#CI)cc1Cl [Haloprogin] | 46.9
O=c1[nH]c(=O)n([C@H]2C[C@H](O)[C@@H](CO)O2)cc1I [Idoxuridine] | 61.4

Same assay, conditions: 1000 nM; 72 h

Structure (SMILES) | cell viability [%]
O=C(Cc1cccc(OC(F)(F)F)c1)Nc1ccc(CCCCc2nnc(NC(=O)Cc3ccccn3)s2)nn1 [CB-839] | 44.8
O=C(/C=C/c1cccnc1)NCCCCC1CCN(C(=O)c2ccccc2)CC1 [Daporinad] | 2.87
Nc1ccn([C@@H]2O[C@H](CO)[C@@H](O)C2(F)F)c(=O)n1 [Gemcitabine] | 45.5
Clc1cc(Cl)c(OCC#CI)cc1Cl [Haloprogin] | 23.9
O=c1[nH]c(=O)n([C@H]2C[C@H](O)[C@@H](CO)O2)cc1I [Idoxuridine] | 41.6

Same assay, conditions: 10000 nM; 72 h

Structure (SMILES) | cell viability [%]
O=C(Cc1cccc(OC(F)(F)F)c1)Nc1ccc(CCCCc2nnc(NC(=O)Cc3ccccn3)s2)nn1 [CB-839] | 68.9
O=C(/C=C/c1cccnc1)NCCCCC1CCN(C(=O)c2ccccc2)CC1 [Daporinad] | < 0
Nc1ccn([C@@H]2O[C@H](CO)[C@@H](O)C2(F)F)c(=O)n1 [Gemcitabine] | 7.03
Clc1cc(Cl)c(OCC#CI)cc1Cl [Haloprogin] | 93.2
O=c1[nH]c(=O)n([C@H]2C[C@H](O)[C@@H](CO)O2)cc1I [Idoxuridine] | > 100

Test system: myeloid leukemia patient primary cells Pat.11
Assay: as above
Conditions: 1 nM; 72 h
In short: as §1

Structure (SMILES) | cell viability [%]
O=C(Cc1cccc(OC(F)(F)F)c1)Nc1ccc(CCCCc2nnc(NC(=O)Cc3ccccn3)s2)nn1 [CB-839] | 94.1
O=C(/C=C/c1cccnc1)NCCCCC1CCN(C(=O)c2ccccc2)CC1 [Daporinad] | 94.7
Nc1ccn([C@@H]2O[C@H](CO)[C@@H](O)C2(F)F)c(=O)n1 [Gemcitabine] | 95.3
Clc1cc(Cl)c(OCC#CI)cc1Cl [Haloprogin] | 94.1
O=c1[nH]c(=O)n([C@H]2C[C@H](O)[C@@H](CO)O2)cc1I [Idoxuridine] | > 100

Same assay, conditions: 10 nM; 72 h

Structure (SMILES) | cell viability [%]
O=C(Cc1cccc(OC(F)(F)F)c1)Nc1ccc(CCCCc2nnc(NC(=O)Cc3ccccn3)s2)nn1 [CB-839] | 88.4
O=C(/C=C/c1cccnc1)NCCCCC1CCN(C(=O)c2ccccc2)CC1 [Daporinad] | 10.9
Nc1ccn([C@@H]2O[C@H](CO)[C@@H](O)C2(F)F)c(=O)n1 [Gemcitabine] | 91.6
Clc1cc(Cl)c(OCC#CI)cc1Cl [Haloprogin] | > 100
O=c1[nH]c(=O)n([C@H]2C[C@H](O)[C@@H](CO)O2)cc1I [Idoxuridine] | 95.9

Same assay, conditions: 100 nM; 72 h

Structure (SMILES) | cell viability [%]
O=C(Cc1cccc(OC(F)(F)F)c1)Nc1ccc(CCCCc2nnc(NC(=O)Cc3ccccn3)s2)nn1 [CB-839] | 85.1
O=C(/C=C/c1cccnc1)NCCCCC1CCN(C(=O)c2ccccc2)CC1 [Daporinad] | 1.05
Nc1ccn([C@@H]2O[C@H](CO)[C@@H](O)C2(F)F)c(=O)n1 [Gemcitabine] | > 100
Clc1cc(Cl)c(OCC#CI)cc1Cl [Haloprogin] | 96
O=c1[nH]c(=O)n([C@H]2C[C@H](O)[C@@H](CO)O2)cc1I [Idoxuridine] | 96.4

Same assay, conditions: 1000 nM; 72 h

Structure (SMILES) | cell viability [%]
O=C(Cc1cccc(OC(F)(F)F)c1)Nc1ccc(CCCCc2nnc(NC(=O)Cc3ccccn3)s2)nn1 [CB-839] | 74.3
O=C(/C=C/c1cccnc1)NCCCCC1CCN(C(=O)c2ccccc2)CC1 [Daporinad] | 2.36
Nc1ccn([C@@H]2O[C@H](CO)[C@@H](O)C2(F)F)c(=O)n1 [Gemcitabine] | 83.6
Clc1cc(Cl)c(OCC#CI)cc1Cl [Haloprogin] | 81.8
O=c1[nH]c(=O)n([C@H]2C[C@H](O)[C@@H](CO)O2)cc1I [Idoxuridine] | 90.7

Same assay, conditions: 10000 nM; 72 h

Structure (SMILES) | cell viability [%]
O=C(Cc1cccc(OC(F)(F)F)c1)Nc1ccc(CCCCc2nnc(NC(=O)Cc3ccccn3)s2)nn1 [CB-839] | 90.7
O=C(/C=C/c1cccnc1)NCCCCC1CCN(C(=O)c2ccccc2)CC1 [Daporinad] | 0.862
Nc1ccn([C@@H]2O[C@H](CO)[C@@H](O)C2(F)F)c(=O)n1 [Gemcitabine] | 67.2
Clc1cc(Cl)c(OCC#CI)cc1Cl [Haloprogin] | 1.14
O=c1[nH]c(=O)n([C@H]2C[C@H](O)[C@@H](CO)O2)cc1I [Idoxuridine] | > 100

Test system: myeloid leukemia patient primary cells Pat.12
Assay: as above
Conditions: 1 nM; 72 h
In short: as §1

Structure (SMILES) | cell viability [%]
O=C(Cc1cccc(OC(F)(F)F)c1)Nc1ccc(CCCCc2nnc(NC(=O)Cc3ccccn3)s2)nn1 [CB-839] | 86.8
O=C(/C=C/c1cccnc1)NCCCCC1CCN(C(=O)c2ccccc2)CC1 [Daporinad] | 91.5
Nc1ccn([C@@H]2O[C@H](CO)[C@@H](O)C2(F)F)c(=O)n1 [Gemcitabine] | 96.3
Clc1cc(Cl)c(OCC#CI)cc1Cl [Haloprogin] | 92.9
O=c1[nH]c(=O)n([C@H]2C[C@H](O)[C@@H](CO)O2)cc1I [Idoxuridine] | 95.6

Same assay, conditions: 10 nM; 72 h

Structure (SMILES) | cell viability [%]
O=C(Cc1cccc(OC(F)(F)F)c1)Nc1ccc(CCCCc2nnc(NC(=O)Cc3ccccn3)s2)nn1 [CB-839] | 89.6
O=C(/C=C/c1cccnc1)NCCCCC1CCN(C(=O)c2ccccc2)CC1 [Daporinad] | 32.2
Nc1ccn([C@@H]2O[C@H](CO)[C@@H](O)C2(F)F)c(=O)n1 [Gemcitabine] | 95.9
Clc1cc(Cl)c(OCC#CI)cc1Cl [Haloprogin] | 96.3
